# Data taken from US8426340B2, “Plant growth enhancement with combinations of PESA and plant growth regulators” (Valent BioSciences Corporation, priority 2009, dated 2013).
# Counter-ions that a name gives are not always drawn.
# Legend:
# Format in all cases: in vivo
# [1] = test system: cotton; experiment: Pouch assay, root length of cotton seedlings (ABA)
# Procedure: (§1) Seeds were placed in germination pouches consisting of germination paper hydrated with sterile water that was an insert in a gas-permeable 16×14 cm plastic pouch (CYG Pouch; Mega International, St. Paul, Minn.). In these examples, in pouch solution evaluation, PESA sodium salt or other active ingredients were added to the sterile water in the pouch. The pouches were arranged in a completely randomized block design in growth racks and placed in 19-liter polycarbonate food storage containers (Rubbermaid Commercial Products, Winchester, Va.). The sealed containers were held in an upright growth cabinet maintained at 25° C. with a 12 hour light: 12 hour dark photoperiod. When Abscisic acid was assayed in pouch studies, the pouches were first filled with sterile water to promote germination. The sterile water solutions were replaced after germination (4 days) and replaced with solutions containing ABA. After 6 days, the containers were removed from the growth cabinet, and the lengths of the roots and shoot were measured.
# [2] = test system: rice cv. Cheniere; experiment: Pouch assay, root length of rice seedlings; settings: for effect on root length of rice seedlings / effect on main root length of rice cv. Cheniere: pouch solution; for effect on main root length of rice cv. Cheniere: combination: 3, 10, or 30 mg/liter PESA with 1 or 10 mg/liter trinexapac-ethyl
# Procedure: as §1
# In pouch solution evaluation, treatment with the gibberellin biosynthesis inhibitor trinexapac-ethyl on […].
# [3] = test system: lettuce; experiment: Lettuce seed treatment, germination under thermodormancy conditions; settings: 33° C. and continuous light
# Procedure: (§2) Seed was sieved with a screen of mesh size appropriate to remove broken seeds and small trash. Cracked or otherwise damaged seeds were removed. The seed was well mixed, and 50 g samples were weighed into small plastic trays. Seed treatment slurries were made by adding measured amounts of PESA or its salts and other AIs to sufficient water to bring them up to a standard volume, typically 2 ml. A fungicide (Maxim XL; Syngenta Agricultural Products, Greensboro, N.C.), a polymeric binder (CF-Clear; Becker-Underwood, Ames, Iowa), and a colorant (Color Coat Red; Becker-Underwood, Ames, Iowa) were also included in the slurry at label rates. A small aliquot of this slurry was applied to the seed using a Hege 11 coater (Wintersteiger, Salt Lake City, Utah) with a six-inch bowl at a slurry rate of 30 ounces per 100 lbs of seed. The slurry was deposited drop-wise on the spinning disk atomizer using a syringe.
# (§3) After treatment, each seed sample was placed in plastic trays and dried at a room temperature for 20 to 60 minutes. The samples were then placed in small plastic bags. […]
# To test the effect of chemical application on thermodormancy, lettuce seed was treated with PESA salt (50 g/cwt), 6BA (1 g/cwt), or a combination of PESA salt and 6BA. Lettuce seed was then grown under conditions that promote thermodormancy (33° C. and continuous light) and final seedling germination was determined (Table 1).
# [4] = test system: lettuce; experiment: Lettuce seed treatment, root growth; settings: 25° C. in darkness, 3 days
# Procedure: as §2, §3
# To test the effect of chemical application on root growth, lettuce seed was treated with PESA salt (50 g/cwt), 6BA (1 g/cwt), or a combination of PESA salt and 6BA. Treated lettuce seed was grown at 25° C. in darkness, and root lengths were determined after 3 days.
# [5] = test system: cotton; experiment: Pouch assay, root length of cotton seedlings (6BA); settings: for root length (cm) of cotton: 6BA 0 mg/liter
# Procedure: as §1
# [6] = ACC alone 1, 10, or 100 mg/liter, combination: 3, 10, or 30 mg/liter PESA with 1, 10, or 100 mg/liter ACC, except 10 mg/liter PESA with 1 mg/liter ACC
# [7] = PESA salt 50 g/cwt, 6BA 1 g/cwt, alone or in combination
# [8] = seed treatment 50 g/cwt PESA salt, 0 g/cwt 6BA
structure (smiles),measurement,setting,value
"CC1=CC(=O)CC(C)(C)[C@@]1(O)/C=C/C(C)=C\C(=O)O [ABA, abscisic acid]",root length (cm) of cotton,"[1]; PESA salt 0 mg/liter, ABA 1 mg/liter",10.4 cm
same,root length (cm) of cotton,"[1]; PESA salt 0 mg/liter, ABA 10 mg/liter",10.0 cm
same,effect on root growth of cotton seedlings,"[1]; pouch solution, combination: PESA 3 or 10 mg/liter with ABA",inhibited root growth
"NC1(C(=O)O)CC1 [ACC, 1-aminocyclopropane carboxylic acid, reference compound]",root length (cm) of rice cv. Cheniere,"[2]; Table 4, PESA salt 0 mg/liter, ACC 1 mg/liter",8.8 cm
same,root length (cm) of rice cv. Cheniere,"[2]; Table 4, PESA salt 0 mg/liter, ACC 10 mg/liter",7.8 cm
same,root length (cm) of rice cv. Cheniere,"[2]; Table 4, PESA salt 0 mg/liter, ACC 100 mg/liter",4.3 cm
same,effect on root length of rice seedlings,[2]; [6],reduced root length
"O=C(O)CCC(=O)NCCc1ccccc1 [PESA salt, N-(2-phenylethyl)succinamic acid]",effect on lettuce germination,[3]; [7],no effect
same,Germination (%),[3]; [8],14.9%
same,root length (cm) of rice cv. Cheniere,"[2]; Table 3, PESA salt 3 mg/liter, trinexapac-ethyl 0 mg/liter",12.1 cm
same,root length (cm) of rice cv. Cheniere,"[2]; Table 3, PESA salt 10 mg/liter, trinexapac-ethyl 0 mg/liter",12.5 cm
same,root length (cm) of rice cv. Cheniere,"[2]; Table 3, PESA salt 30 mg/liter, trinexapac-ethyl 0 mg/liter",13.1 cm
same,root length (cm) of rice cv. Cheniere,"[2]; Table 4, PESA salt 3 mg/liter, ACC 0 mg/liter",9.7 cm
same,root length (cm) of rice cv. Cheniere,"[2]; Table 4, PESA salt 10 mg/liter, ACC 0 mg/liter",9.8 cm
same,root length (cm) of rice cv. Cheniere,"[2]; Table 4, PESA salt 30 mg/liter, ACC 0 mg/liter",9.4 cm
same,root length (cm) of rice cv. Cheniere,"[2]; Table 5, PESA salt 3 mg/liter, AVG 0 mg/liter",11.4 cm
same,root length (cm) of rice cv. Cheniere,"[2]; Table 5, PESA salt 30 mg/liter, AVG 0 mg/liter",12.3 cm
same,effect on root length of rice seedlings,[2]; [6],increased root length
same,effect on root length of rice seedlings,[2]; PESA salt alone (AVG experiment),increased root length
same,effect on main root length of rice cv. Cheniere,[2],increased root length in a dose-dependent manner
same,effect on lettuce root growth,[4]; [7],no effect on lettuce root growth
same,Root length (cm),[4]; [8],3.8 cm
same,root length (cm) of cotton,[5]; PESA salt 3 mg/liter,9.8 cm
same,root length (cm) of cotton,[5]; PESA salt 10 mg/liter,11.9 cm
same,root length (cm) of cotton,[5]; PESA salt 30 mg/liter,13.0 cm
same,effect on main root length of cotton seedlings,"[5]; pouch solution, combination: 10 or 30 mg/liter PESA with 1 or 10 mg/liter 6BA",increased root length in a dose-dependent manner
same,root length (cm) of cotton,"[1]; PESA salt 3 mg/liter, ABA 0 mg/liter",11.9 cm
same,root length (cm) of cotton,"[1]; PESA salt 10 mg/liter, ABA 0 mg/liter",11.1 cm
"CCOC(=O)C1CC(=O)C(=C(O)C2CC2)C(=O)C1 (centres unmarked) [trinexapac-ethyl, reference compound]",root length (cm) of rice cv. Cheniere,"[2]; Table 3, PESA salt 0 mg/liter, trinexapac-ethyl 1 mg/liter",10.9 cm
same,root length (cm) of rice cv. Cheniere,"[2]; Table 3, PESA salt 0 mg/liter, trinexapac-ethyl 10 mg/liter",9.9 cm
same,root length (cm) of rice cv. Cheniere,"[2]; Table 3, PESA salt 0 mg/liter, trinexapac-ethyl 100 mg/liter",5.0 cm
same,effect on main root length of rice cv. Cheniere,[2],negative effect on main root length
